Assays:
Rho kinase 2 = Rho kinase 2 (Homo sapiens, UniProt O75116); experiment: In vitro Rho kinase inhibitory activity assay (ADP-Glo kit, Myelin Basic Protein substrate); assay type: biochemical; details: 10 μM ATP, 25° C., read-out: ROCK2 inhibitory activity (Ki, range of activity)
Protocol: (§1) The effectiveness of compounds of the present invention to inhibit Rho kinase activity can be determined in a 10 μl assay containing 40 mM Tris pH7.5, 20 mM MgCl2 0.1 mg/ml BSA, 50 μM DTT and 2.5 μM peptide substrate (Myelin Basic Protein) using an ADP-Glo kit (Promega). Compounds were dissolved in DMSO such that the final concentration of DMSO was 1% in the assay. All reactions/incubations are performed at 25° C. Compound (2 ul) and either Rho kinase 1 or 2 (4 μl) were mixed and incubated for 30 mins. Reactions were initiated by addition of ATP (4 μl) such that the final concentration of ATP in the assay was 10 μM. After a 1 hour incubation 10 μl of ADP-Glo Reagent was added and after a further 45 minute incubation 20 ul of Kinase Detection Buffer was added and the mixture incubated for a further 30 minutes. The luminescent signal was measured on a luminometer. […] Compounds were tested in dose-response format and the inhibition of kinase activity was calculated at each concentration of compound. To determine the IC50 (concentration of compound required to inhibit 50% of the enzyme activity) data were fit to a plot of % inhibition vs Log10 compound concentration using a sigmoidal fit with a variable slope and fixing the maximum to 100% and the minimum to 0%. To determine the Ki values the Cheng-Prusoff equation was utilized (Ki=IC50/(1+[S]/Km).

Rho kinase 1 = Rho kinase 1 (Homo sapiens, UniProt Q13464); experiment: as above; assay type: biochemical; details: 10 μM ATP, 25° C., read-out: ROCK1 inhibitory activity (Ki, range of activity)
Protocol: as §1

Rho kinase 2, sequence (O75116 whole entry): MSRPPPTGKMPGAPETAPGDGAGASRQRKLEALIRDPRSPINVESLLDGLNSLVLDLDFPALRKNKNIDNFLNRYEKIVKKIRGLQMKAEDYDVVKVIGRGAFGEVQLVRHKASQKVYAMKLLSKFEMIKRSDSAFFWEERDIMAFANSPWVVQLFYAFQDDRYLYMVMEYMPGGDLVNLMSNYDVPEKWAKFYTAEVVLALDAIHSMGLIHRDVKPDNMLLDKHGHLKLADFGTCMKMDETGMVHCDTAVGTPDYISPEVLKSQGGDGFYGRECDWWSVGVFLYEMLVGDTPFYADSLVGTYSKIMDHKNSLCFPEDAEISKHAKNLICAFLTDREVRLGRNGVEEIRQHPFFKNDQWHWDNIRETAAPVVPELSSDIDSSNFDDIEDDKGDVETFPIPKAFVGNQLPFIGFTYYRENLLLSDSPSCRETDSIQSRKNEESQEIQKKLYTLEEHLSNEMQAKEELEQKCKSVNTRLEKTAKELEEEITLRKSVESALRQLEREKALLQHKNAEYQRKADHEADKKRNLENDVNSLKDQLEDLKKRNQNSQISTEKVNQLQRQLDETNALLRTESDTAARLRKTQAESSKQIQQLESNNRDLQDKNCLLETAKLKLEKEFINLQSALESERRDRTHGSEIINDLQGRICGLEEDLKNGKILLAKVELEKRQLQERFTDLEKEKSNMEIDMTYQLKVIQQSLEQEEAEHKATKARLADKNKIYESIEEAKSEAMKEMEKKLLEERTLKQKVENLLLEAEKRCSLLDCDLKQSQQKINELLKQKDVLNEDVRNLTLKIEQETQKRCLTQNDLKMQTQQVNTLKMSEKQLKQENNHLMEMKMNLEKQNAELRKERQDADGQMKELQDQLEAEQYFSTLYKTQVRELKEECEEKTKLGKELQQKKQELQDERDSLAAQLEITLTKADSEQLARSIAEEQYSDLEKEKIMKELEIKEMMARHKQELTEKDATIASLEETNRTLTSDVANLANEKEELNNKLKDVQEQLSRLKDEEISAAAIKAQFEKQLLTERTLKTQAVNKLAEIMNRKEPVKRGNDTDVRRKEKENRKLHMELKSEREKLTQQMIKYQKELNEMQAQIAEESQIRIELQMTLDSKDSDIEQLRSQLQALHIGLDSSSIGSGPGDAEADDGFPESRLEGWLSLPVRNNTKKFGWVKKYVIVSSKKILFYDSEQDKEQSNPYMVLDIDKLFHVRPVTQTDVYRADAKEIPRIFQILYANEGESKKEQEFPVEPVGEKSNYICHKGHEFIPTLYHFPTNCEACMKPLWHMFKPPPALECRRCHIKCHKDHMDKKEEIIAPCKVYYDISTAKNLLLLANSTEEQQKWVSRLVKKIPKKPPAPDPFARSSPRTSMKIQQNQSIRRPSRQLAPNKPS
Rho kinase 1, sequence (Q13464 whole entry): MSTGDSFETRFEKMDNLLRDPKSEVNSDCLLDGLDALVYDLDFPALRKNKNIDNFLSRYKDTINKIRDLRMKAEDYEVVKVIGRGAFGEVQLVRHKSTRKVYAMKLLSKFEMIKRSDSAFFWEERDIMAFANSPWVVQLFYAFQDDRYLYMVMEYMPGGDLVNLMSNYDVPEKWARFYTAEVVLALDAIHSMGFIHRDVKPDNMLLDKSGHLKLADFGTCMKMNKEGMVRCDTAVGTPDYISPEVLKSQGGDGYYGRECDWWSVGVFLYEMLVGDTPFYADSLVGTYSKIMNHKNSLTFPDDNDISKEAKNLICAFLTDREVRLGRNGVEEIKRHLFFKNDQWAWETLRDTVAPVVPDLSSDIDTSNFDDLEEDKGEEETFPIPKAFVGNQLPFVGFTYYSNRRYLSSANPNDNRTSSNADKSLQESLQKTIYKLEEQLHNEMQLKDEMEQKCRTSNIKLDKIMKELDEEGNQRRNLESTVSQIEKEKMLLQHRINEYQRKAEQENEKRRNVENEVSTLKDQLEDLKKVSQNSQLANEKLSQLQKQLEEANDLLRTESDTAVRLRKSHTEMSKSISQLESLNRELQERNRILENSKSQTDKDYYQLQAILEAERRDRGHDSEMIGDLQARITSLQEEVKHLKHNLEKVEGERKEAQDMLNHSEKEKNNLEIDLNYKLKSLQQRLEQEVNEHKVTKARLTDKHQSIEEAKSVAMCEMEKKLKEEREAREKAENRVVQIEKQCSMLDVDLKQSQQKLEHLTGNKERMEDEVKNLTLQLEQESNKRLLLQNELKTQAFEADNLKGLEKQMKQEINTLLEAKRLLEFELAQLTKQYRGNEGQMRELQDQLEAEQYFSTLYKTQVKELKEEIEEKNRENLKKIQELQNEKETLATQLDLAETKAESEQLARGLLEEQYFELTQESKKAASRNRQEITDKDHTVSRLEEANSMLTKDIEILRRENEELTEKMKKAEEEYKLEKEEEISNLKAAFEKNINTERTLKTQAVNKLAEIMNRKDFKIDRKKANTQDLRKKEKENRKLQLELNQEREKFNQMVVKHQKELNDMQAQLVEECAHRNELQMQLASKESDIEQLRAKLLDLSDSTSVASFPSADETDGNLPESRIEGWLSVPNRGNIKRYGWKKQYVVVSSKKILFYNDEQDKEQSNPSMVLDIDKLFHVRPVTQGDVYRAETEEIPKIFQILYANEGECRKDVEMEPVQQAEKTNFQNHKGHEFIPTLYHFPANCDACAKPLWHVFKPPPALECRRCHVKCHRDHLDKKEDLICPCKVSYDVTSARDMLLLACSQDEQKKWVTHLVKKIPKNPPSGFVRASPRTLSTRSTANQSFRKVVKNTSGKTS

| Structure (SMILES) | Ki (Rho kinase 2) | Ki (Rho kinase 1) |
| --- | --- | --- |
| CC1=C(C(=O)Nc2ccc3cnccc3c2)C(c2ccc(Cl)c(F)c2)n2nc(CO)cc2N1 (stereo not shown) [Example 57, 7-(4-chloro-3-fluorophenyl)-2-(hydroxymethyl)-N-(isoquinolin-6-yl)-5-methyl-4,7-dihydropyrazolo[1,5-a]pyrimidine-6-carboxamide] | < 50 nM | < 50 nM |
| CC1=C(C(=O)Nc2ccc3cnccc3c2)C(c2ccc(C(F)(F)F)c(F)c2F)n2nc(CN(C)C)cc2N1 (stereo not shown) [Example 122, 7-(2,3-difluoro-4-(trifluoromethyl)phenyl)-2-((dimethylamino)methyl)-N-(isoquinolin-6-yl)-5-methyl-4,7-dihydropyrazolo[1,5-a]pyrimidine-6-carboxamide] | < 50 nM | < 50 nM |
| CC1=C(C(=O)Nc2ccc3cnccc3c2)C(CCc2ccccc2)n2nc(CO)cc2N1 (stereo not shown) [Example 53, 2-(hydroxymethyl)-N-(isoquinolin-6-yl)-5-methyl-7-phenethyl-4,7-dihydropyrazolo[1,5-a]pyrimidine-6-carboxamide] | < 50 nM | < 50 nM |
| CC1=C(C(=O)Nc2ccc3cnccc3c2)C(c2ccc(C(F)(F)F)c(F)c2)n2nc(C(=O)N3C[C@H]4CN(C)C[C@H]4C3)cc2N1 (stereo partly shown) [Example 86, 7-(3-fluoro-4-(trifluoromethyl)phenyl)-N-(isoquinolin-6-yl)-5-methyl-2-(5-methyloctahydropyrrolo[3,4-c]pyrrole-2-carbonyl)-4,7-dihydropyrazolo[1,5-a]pyrimidine-6-carboxamide] | < 50 nM | < 50 nM |
| CC1=C(C(=O)Nc2ccc3[nH]ncc3c2)C(c2ccc(C(F)(F)F)cc2)n2nnnc2N1 (single isomer, unassigned) [Example 27A, N-(1H-indazol-5-yl)-5-methyl-7-(4-(trifluoromethyl)phenyl)-4,7-dihydrotetrazolo[1,5-a]pyrimidine-6-carboxamide] | < 50 nM | < 50 nM |
| CC1=C(C(=O)Nc2ccc3[nH]ncc3c2)C(c2ccc(F)cc2)n2ncc(C(=O)NCCN(C)C)c2N1 (stereo not shown) [Example 92, N3-(2-(dimethylamino)ethyl)-7-(4-fluorophenyl)-N6-(1H-indazol-5-yl)-5-methyl-4,7-dihydropyrazolo[1,5-a]pyrimidine-3,6-dicarboxamide] | > 500 nM | > 500 nM |
| CC1=C(C(=O)Nc2ccc3cnccc3c2)C(c2ccc(C(F)(F)F)c(F)c2)n2nc(CN3CCCCC3)cc2N1 (single isomer, unassigned) [Example 97A, 7-(3-fluoro-4-(trifluoromethyl)phenyl)-N-(isoquinolin-6-yl)-5-methyl-2-(piperidin-1-ylmethyl)-4,7-dihydropyrazolo[1,5-a]pyrimidine-6-carboxamide] | 50 to 500 nM | 50 to 500 nM |
| CC1=C(C(=O)Nc2ccc3cnccc3c2)C(c2ccc(C(F)(F)F)c(F)c2)n2nc(CN3CCC4(CCN(C)CC4)C3)cc2N1 (stereo not shown) [Example 103, 7-(3-fluoro-4-(trifluoromethyl)phenyl)-N-(isoquinolin-6-yl)-5-methyl-2-((8-methyl-2,8-diazaspiro[4.5]decan-2-yl)methyl)-4,7-dihydropyrazolo[1,5-a]pyrimidine-6-carboxamide] | < 50 nM | < 50 nM |
| CC1=C(C(=O)Nc2ccc3cnccc3c2)C(c2ccc(C(F)(F)F)c(F)c2)n2nc(C(=O)NCCN3CCCCC3)nc2N1 (single isomer, unassigned) [Example 129a, 7-(3-fluoro-4-(trifluoromethyl)phenyl)-N6-(isoquinolin-6-yl)-5-methyl-N2-(2-(piperidin-1-yl)ethyl)-4,7-dihydro-[1,2,4]triazolo[1,5-a]pyrimidine-2,6-dicarboxamide] | < 50 nM | < 50 nM |
| CC1=C(C(=O)Nc2ccc3cnccc3c2)C(c2ccc(C(F)(F)F)c(F)c2)n2nc(N)cc2N1 (single isomer, unassigned) [130A] | > 500 nM | > 500 nM |
| CC1=C(C(=O)Nc2ccc3cnccc3c2)C(c2ccc(Cl)c(C(F)(F)F)c2)n2nc(CO)cc2N1 (stereo not shown) [Example 47, 7-(4-chloro-3-(trifluoromethyl)phenyl)-2-(hydroxymethyl)-N-(isoquinolin-6-yl)-5-methyl-4,7-dihydropyrazolo[1,5-a]pyrimidine-6-carboxamide] | < 50 nM | < 50 nM |
| CC1=C(C(=O)Nc2ccc3cnccc3c2)C(c2ccc(C)c(F)c2F)n2nc(CN(C)C)cc2N1 (single isomer, unassigned) [Example 121b, 7-(2,3-difluoro-4-methylphenyl)-2-((dimethylamino)methyl)-N-(isoquinolin-6-yl)-5-methyl-4,7-dihydropyrazolo[1,5-a]pyrimidine-6-carboxamide] | < 50 nM | < 50 nM |
| CC1=C(C(=O)Nc2ccc3cnccc3c2)C(C2COc3ccccc3O2)n2nc(CO)cc2N1 (single isomer, unassigned) [Example 72B, 7-(2,3-dihydrobenzo[b][1,4]dioxin-2-yl)-2-(hydroxymethyl)-N-(isoquinolin-6-yl)-5-methyl-4,7-dihydropyrazolo[1,5-a]pyrimidine-6-carboxamide] | < 50 nM | < 50 nM |
| CC1=C(C(=O)Nc2ccc3cnccc3c2)C(C2Cc3ccccc3C2)n2nc(CN(C)C)cc2N1 (single isomer, unassigned) [Example 124a, 7-(2,3-dihydro-1H-inden-2-yl)-2-((dimethylamino)methyl)-N-(isoquinolin-6-yl)-5-methyl-4,7-dihydropyrazolo[1,5-a]pyrimidine-6-carboxamide] | > 500 nM | > 500 nM |
| CC1=C(C(=O)Nc2ccc3cnccc3c2)C(c2ccc(C(F)(F)F)c(F)c2)n2nc(CNC(=O)CCN3CCCCC3)cc2N1 (single isomer, unassigned) [Example 138A, 7-(3-Fluoro-4-(trifluoromethyl)phenyl)-N-(isoquinolin-6-yl)-5-methyl-2-((3-(piperidin-1-yl)propanamido)methyl)-4,7-dihydropyrazolo[1,5-a]pyrimidine-6-carboxamide] | < 50 nM | < 50 nM |
| CC1=C(C(=O)Nc2ccc3[nH]ncc3c2)C(c2ccc(F)cc2)n2nc(C#N)cc2N1 (stereo not shown) [Example 31, 2-cyano-7-(4-fluorophenyl)-N-(1H-indazol-5-yl)-5-methyl-4,7-dihydropyrazolo[1,5-a]pyrimidine-6-carboxamide] | < 50 nM | < 50 nM |
| CC1=C(C(=O)Nc2ccc3[nH]ncc3c2)C(c2ccc(F)cc2)n2nc(C(=O)N3CCNCC3)cc2N1 (stereo not shown) [Example 93, 7-(4-fluorophenyl)-N-(1H-indazol-5-yl)-5-methyl-2-(piperazine-1-carbonyl)-4,7-dihydropyrazolo[1,5-a]pyrimidine-6-carboxamide] | < 50 nM | < 50 nM |
| CC1=C(C(=O)Nc2ccc3cnccc3c2)C(c2ccc(C(F)(F)F)c(F)c2)n2nc(C(=O)NCC3CCN(C)CC3)cc2N1 (stereo not shown) [Example 84, 7-(3-fluoro-4-(trifluoromethyl)phenyl)-N6-(isoquinolin-6-yl)-5-methyl-N2-((1-methylpiperidin-4-yl)methyl)-4,7-dihydropyrazolo[1,5-a]pyrimidine-2,6-dicarboxamide] | < 50 nM | < 50 nM |
| CC1=C(C(=O)Nc2ccc3[nH]ncc3c2)C(c2ccc(C(F)(F)F)cc2)n2nc(CN)cc2N1 (stereo not shown) [Example 111, 2-(aminomethyl)-N-(1H-indazol-5-yl)-5-methyl-7-(4-(trifluoromethyl)phenyl)-4,7-dihydropyrazolo[1,5-a]pyrimidine-6-carboxamide] | < 50 nM | < 50 nM |
| CC1=C(C(=O)Nc2ccc3cnccc3c2)C(c2ccc(C(F)(F)F)c(F)c2)n2nc(NC(=O)CN3CCCC3)cc2N1 (single isomer, unassigned) [132B] | > 500 nM | > 500 nM |
| CC1=C(C(=O)Nc2ccc3cnccc3c2)C(c2ccc(C(F)(F)F)c(F)c2)n2nc(NC(=O)c3ccc(CN(C)C)cc3)cc2N1 (single isomer, unassigned) [Example 137B, 2-(4-((Dimethylamino)methyl)benzamido)-7-(3-fluoro-4-(trifluoromethyl)-phenyl)-N-(isoquinolin-6-yl)-5-methyl-4,7-dihydropyrazolo[1,5-a]pyrimidine-6-carboxamide] | < 50 nM | < 50 nM |
| CC1=C(C(=O)Nc2ccc3[nH]ncc3c2)C(c2ccc(C(F)(F)F)cc2F)n2nnnc2N1 (single isomer, unassigned) [Example 26A, 7-(2-fluoro-4-(trifluoromethyl)phenyl)-N-(1H-indazol-5-yl)-5-methyl-4,7-dihydrotetrazolo[1,5-a]pyrimidine-6-carboxamide] | < 50 nM | < 50 nM |
| CC1=C(C(=O)Nc2ccc3cnccc3c2)C(c2ccc(C)c(F)c2)n2nc(CN(C)C)cc2N1 (single isomer, unassigned) [Example 110A, 2-((dimethylamino)methyl)-7-(3-fluoro-4-methylphenyl)-N-(isoquinolin-6-yl)-5-methyl-4,7-dihydropyrazolo[1,5-a]pyrimidine-6-carboxamide] | 50 to 500 nM | 50 to 500 nM |

From patent US10584128B2, “Bicyclic dihydropyrimidine-carboxamide derivatives as Rho-Kinase inhibitors” (CHIESI FARMACEUTICI S.p.A., priority 2016, dated 2020)
